The values that follow come from patent EP1674110A1, “Inhibition of bradykinin release” (priority 1999, dated 2000).

Assay [1] deals with HBP (heparin-binding protein, CAP37). The settings on record: lipid A component of LPS and endotoxin binding to HBP; read-out: Kass (converted); cited from earlier work.
Assay [2] relates to endothelial cells (HUVEC or BAEC). The assay can be described thus: Transendothelial electrical resistance (TEER) after CD18 cross-linking of PMNs. It counts as cell-based. The settings on record: endothelial cells pre-treated with BAPTA AM; concentration not given. The procedure:
Human umbilical vein endothelial cells (HUVEC) and bovine aorta endothelial cells (BAEC) are isolated and cultured as previously described (Gautam et al. 1998, Brit. J. Pharm. 125:1109-1114). HUVEC or BAEC in the first to fifth passages are detached by brief (2 min) trypsin-EDTA treatment (0.25% trypsin/0.01 % EDTA) and replated onto either 0.2 µm pore size Anopore inorganic membrane or 3.0 µm pore size polycarbonate filters (Tissue Culture inserts, 10 mm; NUNC, Roskilde, Denmark). In order to promote cellular differentiation and enhance attachment of endothelial cells (ECs), the filters are pretreated with 50 µl Biomatrix I (167 µg/ml) and air-dried. […] The EC are grown to confluent monolayers, as assessed by daily microscopic observation and measurement of the electrical resistance across the monolayer (Gautam et al. 1998, Brit. J. Pharm. 125:1109-1114).
Two different approaches are used for assessment of stimulation-induced changes in EC permeability. […] Electrical resistance across the EC monolayer is measured at 37°C with electrodes in each compartment exactly positioned in relation to each other and to the monolayer. The electrical resistance of individual EC monolayers is obtained by subtracting the resistance of the corresponding naked filter coated with Biomatrix as measured prior to seeding of the endothelial cells. […]

The subject of the next assay is BAEC monolayers. The assay can be described thus: EC intracellular free Ca2+ (fluo-3) after CD18 cross-linking of PMNs. The settings on record: endothelial cells pre-treated with BAPTA AM; concentration not given. It counts as cell-based, bovine. The procedure:
The Ca^2+ sensitive fluorescent probe fluo-3/AM (Molecular Probes Europe BV, Leiden, The Netherlands) is used for determination of changes in EC intracellular free Ca^2+. Confluent BAEC monolayers on filters are incubated for 30 min at 37°C with fluo-3/AM (3µM in HBSS containing 2% FCS and 10 mM HEPES) added to both the apical and basolateral surface. The monolayers are washed three times and incubated with fresh HBSS in the dark for 20 min at room temperature to allow complete hydrolysis of the dye ester. Anti-CD18 or anti-L-selectin mAb treated PMNs are added to ECs and receptor cross-linking is induced with secondary mAb as described above. In separate experiments, PMN secretion containing medium (see above) is used to stimulate ECs in the absence of PMNs. Changes in EC [Ca^2+]i in response to these stimuli are measured through continuous registration of fluorescence intensity with a laser-scanning confocal imaging system (Insight Plus; Meridian Instruments Inc., Okemon, Michigan).
Monolayers of endothelial cells are labelled with the Ca^2+-sensitive fluorophore fluo-3, and stimulus-induced changes in EC [Ca^2+]i monitored by confocal laser scanning microscopy. Adding anti-CD18 treated PMNs to the EC monolayer caused no change in EC [Ca^2+]. […]

With lipid A, the Kd in assay [1] was 1.25 nM.

For `CC(=O)OCOC(=O)CN(CC(=O)OCOC(C)=O)c1ccccc1OCCOc1ccccc1N(CC(=O)OCOC(C)=O)CC(=O)OCOC(C)=O` [BAPTA AM], the “change in TEER in response to CD18 cross-linking” value in assay [2] is recorded as “completely inhibited”. The “rise in EC free intracellular Ca^2+ in response to CD18 cross-linking” value with BAEC monolayers is given as “completely inhibited”.
